{
  "source": "patent EP0390515A1",
  "about": "“Novel adenine derivatives and their use as agents for increasing crop yields” (MITSUBISHI GAS CHEMICAL COMPANY, INC., priority 1989, dated 1990)",
  "system": "pig weed (Amaranthus caudatus)",
  "assay": "Assay of cytokinin activity to promote synthesis of betacyanin by pig weed cotyledon sections",
  "type": "cell-based",
  "details": "27°C, 20 hours, dark",
  "experimental": "Two sheets of filter paper were put double in a plastic container (19 x 28 cm) and were wetted with 60 ml of distilled water. Seeds of pig weed were sown on the filter papers and were germinated by keeping them in the dark at 27°C for 3 days. Seedlings of uniform size were chosen and were cut at the upper part of the hypocotyl and the seed coats were removed. This cotyledon with hypocotyl of 3-4 mm in length was used for assay.\nTwo sheets of filter paper were put double in a glass tubular bottle 32 mm in inner diameter and 1 ml of 0.0065M potassium phosphate buffer solution (pH: 6.3) containing a given concentration of the candidate compound, benzyladenine or zeatin and 0.5 g/l of tyrosine was added therein and ten of the above cotyledon sections were arranged therein and kept at 27°C for 20 hours in the dark. These ten cotyledon sections were put in a test tube containing 3 ml of distilled water and betacyanin was extracted by repeating thrice freezing and thawing. Absorbance of the solution was measured and the amount of the dye was calculated by the difference between the absorbance at 542 nm and at 620 nm. For the untreated group, 0.0065M potassium phosphate buffer solution (pH: 6.3) containing 0.5 g/l of tyrosine was used.",
  "data": [
    {"smiles": "c1ccc(CNc2ncnc3nc[nH]c23)cc1", "note": "[Benzyladenine, 6-benzylaminopurine, reference compound]", "values": [
      {"measurement": "The amount of betacyanin produced (difference between absorbance at 542 nm and 620 nm)", "setting": "0.001 mg/l", "value": 0.038},
      {"measurement": "The amount of betacyanin produced (difference between absorbance at 542 nm and 620 nm)", "setting": "0.01 mg/l", "value": 0.076},
      {"measurement": "The amount of betacyanin produced (difference between absorbance at 542 nm and 620 nm)", "setting": "0.1 mg/l", "value": 0.192},
      {"measurement": "The amount of betacyanin produced (difference between absorbance at 542 nm and 620 nm)", "setting": "1.0 mg/l", "value": 0.260}
    ]},
    {"smiles": "CON(C)CCNc1ncnc2nc[nH]c12", "note": "[MAED, N⁶-[2-(N-methoxy-N-methylamino)ethyl]adenine]", "values": [
      {"measurement": "The amount of betacyanin produced (difference between absorbance at 542 nm and 620 nm)", "setting": "0.001 mg/l", "value": 0.040},
      {"measurement": "The amount of betacyanin produced (difference between absorbance at 542 nm and 620 nm)", "setting": "0.01 mg/l", "value": 0.058},
      {"measurement": "The amount of betacyanin produced (difference between absorbance at 542 nm and 620 nm)", "setting": "0.1 mg/l", "value": 0.121},
      {"measurement": "The amount of betacyanin produced (difference between absorbance at 542 nm and 620 nm)", "setting": "1.0 mg/l", "value": 0.214}
    ]}
  ]
}
